Assay results from patent US20060142354A1, “Use of epothilone derivatives for the treatment of hyperparathyroidism” (priority 2002, published 2006).

Legend:
Assay type in all cases: cell-based, human
[1] = tested on: Breast carcinoma tumor disks; experiment: in vitro angiogenesis assay, tumor disks in fibrin-thrombin clot
Excerpt: (§1) It is submitted that at least part of the effect observed with the compounds of formula I on the diseases mentioned herein are resulting from the inhibition of angiogenesis. […] It is known that human vein disks incorporated into a 0.3% fibrin-thrombin clot will develop angiogenic vessel growth from the cut edge of the vessel disk.
(§2) METHODS: Tumor disks (2 mm in diameter) from seven fresh surgical specimens are incorporated into fibrin-thrombin clots overlayed with nutrient medium containing 20% fetal bovine serum. The fragments are allowed to become angiogenic and on day 18, nutrient medium or nutrient medium containing a compound of formula I, is added. Tumor disks are visually assessed over time to determine the percent of wells that initiated an angiogenic response (% I). Neovessel growth, density, and length are graded at intervals using a semi-quantitative visual neovessel growth-rating scheme [angiogenic index (AI), 0-16 scale]. Statistical significance of the results is tested using comparison of two proportions for % initiation and t-tests for the angiogenic index (p<0.05 considered significant*).

[2] = tested on: Bronchial carcinoid tumor disks; experiment: as above
Excerpt: as §1, §2

[3] = tested on: Midgut carcinoid (met) tumor disks; experiment: as above
Excerpt: as §1, §2

[4] = tested on: Midgut carcinoid tumor disks; experiment: as above
Excerpt: as §1, §2

[5] = tested on: Renal cell carcinoma tumor disks; experiment: as above
Excerpt: as §1, §2

[6] = tested on: Thymic carcinoid tumor disks; experiment: as above
Excerpt: as §1, §2

[7] = tested on: Thyroid cancer tumor disks; experiment: as above; settings: Thyroid cancer (identified as a parathyroid adenoma)
Excerpt: as §1, §2

[8] = tested on: Tumor disks from seven fresh surgical specimens; experiment: in vitro angiogenesis assay, mean over all tumors; settings: Mean +/− SEM of seven tumors; for % Initiation % ↓ / Al (0-16) % ↓: 10^−8 M, decrease vs control
Excerpt: as §1, §2

[9] = percent of wells that initiated an angiogenic response

`C/C(=C\c1csc(C)n1)[C@@H]1C[C@@H]2O[C@]2(C)CCC[C@H](C)[C@H](O)[C@@H](C)C(=O)C(C)(C)[C@@H](O)CC(=O)O1` [epothilone B] was tested. Which “% Initiation % ↓” value ([1]; 10^−8 M, decrease vs control) did it give?
Its value is 94%.

What about the “Al (0-16) % ↓” value ([1]; 10^−8 M, decrease vs control) of the same molecule?
Its value is 91%.

And the “Al (0-16) EpoB 10^−8 M” value ([1]; angiogenic index, 0-16 scale)?
The value was 1.

What about the “% Initiation EpoB 10^−8 M” value [1, 9] of the same molecule?
Its value is 3.3%.

What about the “% Initiation % ↓” value ([2]; 10^−8 M, decrease vs control) of the same molecule?
Its value is 12%.

And the “Al (0-16) % ↓” value ([2]; 10^−8 M, decrease vs control)?
Its value is 40%.

What about the “Al (0-16) EpoB 10^−8 M” value ([2]; angiogenic index, 0-16 scale) of the same molecule?
The value was 6.1.

What about the “% Initiation EpoB 10^−8 M” value [2, 9] of the same molecule?
Its value is 37%.

What about the “% Initiation % ↓” value ([3]; 10^−8 M, decrease vs control) of the same molecule?
The value was 100%.

And the “Al (0-16) % ↓” value ([3]; 10^−8 M, decrease vs control)?
The value was 100%.

What about the “Al (0-16) EpoB 10^−8 M” value ([3]; angiogenic index, 0-16 scale) of the same molecule?
The value was 0.

And the “% Initiation EpoB 10^−8 M” value [3, 9]?
The value was 0%.

And the “% Initiation % ↓” value ([4]; 10^−8 M, decrease vs control)?
Its value is 15%.

What about the “Al (0-16) % ↓” value ([4]; 10^−8 M, decrease vs control) of the same molecule?
The value was 40%.

And the “Al (0-16) EpoB 10^−8 M” value ([4]; angiogenic index, 0-16 scale)?
Its value is 8.2.

What about the “% Initiation EpoB 10^−8 M” value [4, 9] of the same molecule?
The value was 20%.

What about the “% Initiation % ↓” value ([5]; 10^−8 M, decrease vs control) of the same molecule?
Its value is 88%.

And the “Al (0-16) % ↓” value ([5]; 10^−8 M, decrease vs control)?
The value was 80%.

And the “Al (0-16) EpoB 10^−8 M” value ([5]; angiogenic index, 0-16 scale)?
The value was 1.

What about the “% Initiation EpoB 10^−8 M” value [5, 9] of the same molecule?
Its value is 6.7%.

And the “% Initiation % ↓” value ([6]; 10^−8 M, decrease vs control)?
Its value is 40%.

What about the “Al (0-16) % ↓” value ([6]; 10^−8 M, decrease vs control) of the same molecule?
Its value is 73%.

And the “Al (0-16) EpoB 10^−8 M” value ([6]; angiogenic index, 0-16 scale)?
The value was 2.5.

And the “% Initiation EpoB 10^−8 M” value [6, 9]?
The value was 3.3%.

What about the “Al (0-16) EpoB 10^−8 M” value ([7]; angiogenic index, 0-16 scale) of the same molecule?
Its value is 2.1.

And the “% Initiation EpoB 10^−8 M” value [7, 9]?
The value was 50%.

What about the “% Initiation % ↓” value ([7]; 10^−8 M, decrease vs control) of the same molecule?
The value was 50%.

And the “Al (0-16) % ↓” value ([7]; 10^−8 M, decrease vs control)?
Its value is 85%.

And the “Al (0-16) EpoB 10^−8 M” value ([8]; angiogenic index, 0-16 scale)?
The value was 3 ± 1.1.

And the “% Initiation EpoB 10^−8 M” value [8, 9]?
Its value is 17.2 ± 7.4%.

What about the “% Initiation % ↓” value [8] of the same molecule?
The value was 60±13.8%.

And the “Al (0-16) % ↓” value [8]?
The value was 73±9%.

What about the “% Initiation % ↓” value ([8]; listed as EpoB) of the same molecule?
Its value is 60 ± 14%.

And the “Al (0-16) % ↓” value ([8]; listed as EpoB)?
The value was 73 ± 9%.
